In patent US20180338899A1, “INHIBITORS FOR METHYLATION-RELATED ENZYMES HAT1 AND KAT8” (priority 2015, published 2018):
Structures can show the parent of a compound that is named as a salt. Where two headings read alike, the source gives them in different places.

Assays:
KAT8 [1] = biological target: T1, KAT8 (Homo sapiens, UniProt Q9H7Z6); assay: FDA library screening (analysis service PLEXERA) and binding strength, KAT8
T1 sequence (Q9H7Z6 1-458): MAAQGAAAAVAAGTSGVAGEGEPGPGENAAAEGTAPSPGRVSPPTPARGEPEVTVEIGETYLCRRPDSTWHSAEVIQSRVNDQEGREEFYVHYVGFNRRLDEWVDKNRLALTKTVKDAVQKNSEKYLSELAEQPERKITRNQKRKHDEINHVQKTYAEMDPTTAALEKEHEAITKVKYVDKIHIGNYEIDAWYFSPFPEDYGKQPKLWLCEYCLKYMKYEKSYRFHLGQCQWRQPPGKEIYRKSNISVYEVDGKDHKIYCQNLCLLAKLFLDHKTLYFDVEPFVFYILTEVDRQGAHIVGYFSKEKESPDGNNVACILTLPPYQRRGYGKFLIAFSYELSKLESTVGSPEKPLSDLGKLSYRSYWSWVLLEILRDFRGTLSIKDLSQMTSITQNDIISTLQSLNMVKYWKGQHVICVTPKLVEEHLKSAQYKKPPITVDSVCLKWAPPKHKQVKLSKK
Description: (§1) Medicines containing each as an active ingredient (provided that each medicine has an indication other than that for malignant tumors) have already been commercially available.
(§2) Meanwhile, medicines containing each as an active ingredient (provided that each medicine has an indication other than that for malignant tumors) have already been commercially available.

[2] = cited from earlier work
HAT1 [3] = biological target: T2, HAT1 (Homo sapiens, UniProt O14929); details: stated as property of the compound, no test described; cited from earlier work
T2 sequence (O14929 1-419): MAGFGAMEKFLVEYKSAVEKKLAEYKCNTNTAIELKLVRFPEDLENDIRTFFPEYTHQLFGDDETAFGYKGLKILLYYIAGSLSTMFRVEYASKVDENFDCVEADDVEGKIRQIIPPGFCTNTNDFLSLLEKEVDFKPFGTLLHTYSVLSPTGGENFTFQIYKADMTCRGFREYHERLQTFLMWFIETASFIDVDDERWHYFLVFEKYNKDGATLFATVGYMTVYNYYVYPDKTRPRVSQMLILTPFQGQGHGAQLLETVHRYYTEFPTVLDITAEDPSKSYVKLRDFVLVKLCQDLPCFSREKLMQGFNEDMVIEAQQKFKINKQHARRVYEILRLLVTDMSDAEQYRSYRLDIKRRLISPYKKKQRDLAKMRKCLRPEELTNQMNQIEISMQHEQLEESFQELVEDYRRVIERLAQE

KAT8 [4] = biological target: T1, KAT8; details: stated as property of the compound, no test described; cited from earlier work
HLF cells = assay: Cell death and cell growth suppression rate of HLF cells, 3D cell culture spheroid counter Cell3iMager; assay type: cell-based; details: high concentration (30 μM)
Procedure: In addition, chlorpropamide or MG149 was added to HLF cells on culture plates and the cell death and cell growth suppression rate were inspected using a 3D cell culture spheroid counter Cell 3 i Mager (SCREEN, Inc., Kyoto). […] The rows indicate the days of culture and the columns show the kinds and concentrations of the compounds. The concentrations of chlorpropamide were represented in a ratio when the maximum effective blood concentration was set to 1. As the maximum effective blood concentration of chlorpropamide was used 30 µg/ml (which is a value described in the interview form of a commercially available medicine containing chlorpropamide as an active ingredient).

HAT1 [5] = biological target: T2, HAT1; assay: FDA library screening (analysis service PLEXERA) and binding strength, HAT1
Description: as §1, §2

KAT8 [6] = assay: Inhibitory effect of low-molecular-weight compounds on expression of KAT8 by RT-PCR; assay type: cell-based; details: FIG. 6
HAT1 [7] = assay: Inhibitory effect of low-molecular-weight compounds on expression of HAT1 by RT-PCR; assay type: cell-based; details: FIG. 6
[8] = interview form of commercially available medicine
[9] = interview form, given as percent (external preparation / solution concentration)

Row | Molecule | inhibition of function of KAT8 (KAT8 [1]) | maximum effective blood concentration (Cmax) [2, 8] | inhibition of function of HAT1 (HAT1 [5]) | further results
1 | COCCc1ccc(OCC(O)CNC(C)C)cc1.COCCc1ccc(OCC(O)CNC(C)C)cc1.O=C(O)C(O)C(O)C(=O)O (racemic) [metoprolol-(+,−)(+)-tartrate salt] | inhibited only KAT8 | 0.077 µg/mL |  | 
2 | CCCCCCCc1ccc(CCc2cccc(O)c2C(=O)O)cc1 [MG149] |  |  |  | inhibition of HAT1 (HAT1 [3]): does not inhibit HAT1; inhibition of KAT8 (KAT8 [4]): inhibits only KAT8; cell growth suppression effect (HLF cells): failed to elicit a sufficient cell growth suppression effect
3 | C=CCc1ccccc1OCC(O)CNC(C)C (centres unmarked) [alprenolol hydrochloride] | inhibited function of both HAT1 and KAT8 | 0.12 µg/mL | inhibited function of both HAT1 and KAT8 | 
4 | NCC[C@H](O)C(=O)N[C@@H]1C[C@H](N)[C@@H](O[C@H]2O[C@H](CN)[C@@H](O)[C@H](O)[C@H]2O)[C@H](O)[C@H]1O[C@H]1O[C@H](CO)[C@@H](O)[C@H](N)[C@H]1O [amikacin hydrate] | inhibited function of both HAT1 and KAT8 | 25 µg/mL | inhibited function of both HAT1 and KAT8 | 
5 | Cc1cc(=O)n(-c2ccccc2)n1C [antipyrine] |  | 50 µg/mL | inhibited only HAT1 | 
6 | C=C1[C@@H]2CC[C@H]3[C@]4(C)C[C@H](O[C@@H]5O[C@H](CO)[C@@H](OS(=O)(=O)O)[C@H](OS(=O)(=O)O)[C@H]5OC(=O)CC(C)C)C[C@@H](C(=O)O)[C@H]4CC[C@]3(C2)[C@@H]1O [atractyloside potassium salt] |  | 60 µg/mL | inhibited only HAT1 | 
7 | CCc1oc2ccccc2c1C(=O)c1cc(Br)c(O)c(Br)c1 [benzbromarone] |  | 3.1 µg/mL | inhibited only HAT1 | 
8 | CC(C)NCC(O)COc1ccc(CCOCC2CC2)cc1 (centres unmarked) [betaxolol hydrochloride] | inhibited function of both HAT1 and KAT8 | 0.0418 µg/mL | inhibited function of both HAT1 and KAT8 | 
9 | CC(C)NCC(O)COc1ccc(COCCOC(C)C)cc1 (centres unmarked) [bisoprolol fumarate] | inhibited function of both HAT1 and KAT8 | 0.1 µg/mL | inhibited function of both HAT1 and KAT8 | 
10 | CCCCNc1cc(C(=O)O)cc(S(N)(=O)=O)c1Oc1ccccc1 [bumetanide] | inhibited only KAT8 | 0.882 µg/mL |  | 
11 | C=CC1=C(C(=O)O)N2C(=O)[C@@H](NC(=O)/C(=N\OCC(=O)O)c3csc(N)n3)[C@H]2SC1 [cefixime] |  | 3.97 µg/mL |  | 
12 | CCN1CCN(C(=O)N[C@@H](C(=O)N[C@@H]2C(=O)N3C(C(=O)O)=C(CSc4nnnn4C)CS[C@H]23)c2ccc(O)cc2)C(=O)C1=O [cefoperazone dihydrate] |  | 1,000 ng/ml |  | 
13 | CCN(CC)C(=O)Nc1ccc(OCC(O)CNC(C)(C)C)c(C(C)=O)c1 (centres unmarked) [celiprolol hydrochloride] | inhibited function of both HAT1 and KAT8 | 0.3 µg/mL | inhibited function of both HAT1 and KAT8 | 
14 | CN(CCCCCCCCCCN(C)C(=O)Oc1cccc([N+](C)(C)C)c1)C(=O)Oc1cccc([N+](C)(C)C)c1 [demecarium bromide] | inhibited function of both HAT1 and KAT8 |  | inhibited function of both HAT1 and KAT8 | 
15 | COC(=O)CCc1ccc(OCC(O)CNC(C)C)cc1 (centres unmarked) [esmolol hydrochloride] |  | 2.7 µg/mL | inhibited only HAT1 | 
16 | CCc1cccc(CC)c1NC(=O)CN(CC(=O)O)CC(=O)O [etifenin] |  | 5.0 µg/mL | inhibited only HAT1 | 
17 | CCC(=O)O[C@@H](O[P@](=O)(CCCCc1ccccc1)CC(=O)N1C[C@H](C2CCCCC2)C[C@H]1C(=O)O)C(C)C [fosinopril] |  | 4 µg/mL |  | 
18 | C[N+]1(C)CCC(OC(=O)C(O)(c2ccccc2)C2CCCC2)C1 (centres unmarked) [glycopyrrolate] | inhibited only KAT8 |  |  | 
19 | C[C@@H](O)[C@H]1C(=O)N2C(C(=O)O)=C(SCCN=CN)C[C@H]12 [imipenem] |  | 82.8 µg/mL |  | 
20 | O=C([O-])c1ccccc1-c1c2cc(Br)c(=O)cc-2oc2[c]([Hg+])c([O-])c(Br)cc12.[Na+].[Na+].[OH-] [merbromin] | inhibited only KAT8 |  |  | maximum effective blood concentration (Cmax) [2, 9]: 2%
21 | Cc1cc(C(C)(C)CC(C)(C)C)ccc1OCCOCC[N+](C)(C)Cc1ccccc1.[Cl-] [methylbenzethonium chloride] | inhibited function of both HAT1 and KAT8 | 1.93 µg/mL | inhibited function of both HAT1 and KAT8 | inhibitory effect on expression of KAT8 (KAT8 [6]): inhibitory effect; inhibitory effect on expression of HAT1 (HAT1 [7]): inhibitory effect; maximum effective blood concentration (Cmax) [2, 9]: 0.3%
22 | CO[C@]12C[C@@H](COC(=O)c3cncc(Br)c3)CN(C)[C@@H]1Cc1cn(C)c3cccc2c13 [nicergoline] |  | 96 ng eq./mL | inhibited only HAT1 | 
23 | CN(C(=O)CN(CCO)CC(=O)N(C)C(C)(C)Cc1ccccc1)C(C)(C)Cc1ccccc1 [oxethazaine] |  | 1 µg/mL | inhibited only HAT1 | 
24 | C=CCOc1ccccc1OCC(O)CNC(C)C (centres unmarked) [oxprenolol hydrochloride] | inhibited function of both HAT1 and KAT8 | 0.3 µg/mL | inhibited function of both HAT1 and KAT8 | maximum effective blood concentration ([2]; commercially available medicine): 30.18 µg/µL
25 | CCCN1C[C@H](CSC)C[C@@H]2c3cccc4[nH]cc(c34)C[C@H]21 [pergolide mesylate] | inhibited only KAT8 | 0.026 µg/mL |  | 
26 | CC(N/C(=N\C#N)Nc1ccncc1)C(C)(C)C (centres unmarked) [pinacidil] |  | 2.5 µg/mL | inhibited only HAT1 | 
27 | CC(C(=O)O)c1ccc(C(=O)c2cccs2)cc1 (centres unmarked) [suprofen] |  |  | inhibited only HAT1 | maximum effective blood concentration (Cmax) [2, 9]: 1%
28 | CN[C@H](CC(C)C)C(=O)N[C@H]1C(=O)N[C@@H](CC(N)=O)C(=O)N[C@H]2C(=O)N[C@H]3C(=O)N[C@H](C(=O)N[C@H](C(=O)O)c4cc(O)cc(O)c4-c4cc3ccc4O)[C@H](O)c3ccc(c(Cl)c3)Oc3cc2cc(c3O[C@@H]2O[C@H](CO)[C@@H](O)[C@H](O)[C@H]2O[C@H]2C[C@](C)(N)[C@H](O)[C@H](C)O2)Oc2ccc(cc2Cl)[C@H]1O [vancomycin hydrochloride] | inhibited function of both HAT1 and KAT8 | 30 µg/mL | inhibited function of both HAT1 and KAT8 | 
29 | clofilium tosylate |  | 0.11 µg/mL | inhibited only HAT1 | 
30 | colistin sulfate | inhibited function of both HAT1 and KAT8 | 4.4 µg/mL | inhibited function of both HAT1 and KAT8 | inhibitory effect on expression of KAT8 (KAT8 [6]): inhibitory effect; inhibitory effect on expression of HAT1 (HAT1 [7]): inhibitory effect
